Assay results as given in ChEMBL document CHEMBL2150850, “Recent advances in the development of selective human MAO-B inhibitors: (hetero)arylidene-(4-substituted-thiazol-2-yl)hydrazines” (Eur J Med Chem, 2012).

Columns and labels:
Homo sapiens = species: Homo sapiens; experiment: Selectivity ratio of IC50 for human MAO-A to IC50 for human MAO-B
[1] = target: T1, Amine oxidase [flavin-containing] B (Homo sapiens, UniProt P27338); experiment: Inhibition of human MAO-B expressed in baculovirus infected BTI-TN-5B1-4 cells using p-tyramine as substrate at 100 uM incubated for 15 mins prior to substrate addition measured for 15 mins by Amplex red assay; settings: BTI-TN-5B1-4, human, 0.25 h
T1 sequence (P27338 whole entry): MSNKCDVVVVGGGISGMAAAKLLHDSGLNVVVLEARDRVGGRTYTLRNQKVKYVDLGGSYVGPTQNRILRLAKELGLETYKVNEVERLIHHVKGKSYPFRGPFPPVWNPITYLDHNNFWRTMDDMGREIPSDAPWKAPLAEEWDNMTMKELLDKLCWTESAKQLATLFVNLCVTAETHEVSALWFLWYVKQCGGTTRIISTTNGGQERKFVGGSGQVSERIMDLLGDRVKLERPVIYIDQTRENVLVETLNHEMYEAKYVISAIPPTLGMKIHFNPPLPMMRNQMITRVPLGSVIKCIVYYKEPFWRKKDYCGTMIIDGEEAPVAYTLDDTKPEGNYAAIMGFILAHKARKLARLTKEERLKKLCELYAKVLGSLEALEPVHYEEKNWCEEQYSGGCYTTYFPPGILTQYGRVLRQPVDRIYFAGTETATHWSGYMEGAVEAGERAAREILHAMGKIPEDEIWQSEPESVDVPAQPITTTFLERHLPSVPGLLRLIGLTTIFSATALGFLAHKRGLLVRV

[2] = target: T2, Amine oxidase [flavin-containing] A (Homo sapiens, UniProt P21397); experiment: Inhibition of human MAO-A expressed in baculovirus infected BTI-TN-5B1-4 cells using p-tyramine as substrate incubated for 15 mins prior to substrate addition measured for 15 mins by Amplex red assay
T2 sequence (P21397 whole entry): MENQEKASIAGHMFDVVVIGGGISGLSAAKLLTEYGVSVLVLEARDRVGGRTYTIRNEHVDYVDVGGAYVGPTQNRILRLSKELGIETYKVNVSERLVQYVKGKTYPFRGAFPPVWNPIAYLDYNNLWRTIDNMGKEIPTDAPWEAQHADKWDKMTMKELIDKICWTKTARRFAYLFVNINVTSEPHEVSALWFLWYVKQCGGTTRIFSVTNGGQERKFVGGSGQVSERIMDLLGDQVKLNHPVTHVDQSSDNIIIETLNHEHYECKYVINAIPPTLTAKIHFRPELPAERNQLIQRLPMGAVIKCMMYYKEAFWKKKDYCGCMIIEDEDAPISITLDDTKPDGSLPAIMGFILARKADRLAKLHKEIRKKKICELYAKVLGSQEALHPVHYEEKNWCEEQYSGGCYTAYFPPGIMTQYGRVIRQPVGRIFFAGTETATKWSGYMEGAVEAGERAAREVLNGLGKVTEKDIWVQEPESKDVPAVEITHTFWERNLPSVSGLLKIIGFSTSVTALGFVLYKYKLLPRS

[3] = target: T2, Amine oxidase [flavin-containing] A; experiment: Inhibition of human MAO-A expressed in baculovirus infected BTI-TN-5B1-4 cells using p-tyramine as substrate at 100 uM incubated for 15 mins prior to substrate addition measured for 15 mins by Amplex red assay
[4] = target: T1, Amine oxidase [flavin-containing] B; experiment: Reversible inhibition of human MAO-B expressed in baculovirus infected BTI-TN-5B1-4 cells using p-tyramine as substrate at 20 nM incubated for 30 mins prior to substrate addition followed by 100 fold dilution measured for 15 mins by Amplex red assay; settings: bti-tn-5b1-4, 0.25 h, 0.02 µM
[5] = target: T1, Amine oxidase [flavin-containing] B; experiment: biochemical; type: cell-based, BTI-TN-5B1-4
Description: Inhibition of human MAO-B expressed in baculovirus infected BTI-TN-5B1-4 cells using p-tyramine as substrate incubated for 15 mins prior to substrate addition measured for 15 mins by Amplex red assay

[6] = target: T1, Amine oxidase [flavin-containing] B; experiment: Reversible inhibition of human MAO-B expressed in baculovirus infected BTI-TN-5B1-4 cells using p-tyramine as substrate at 70 uM incubated for 30 mins prior to substrate addition followed by 100 fold dilution measured for 15 mins by Amplex red assay; settings: bti-tn-5b1-4, 0.25 h

SMILES	Ratio IC50 (Homo sapiens)	inhibition at 100 µM [1] [%]	IC50 [2] [µM]	inhibition at 100 µM ([3]; BTI-TN-5B1-4, human, 0.25 h) [%]	inhibition (INH) [4]	IC50 [5] [nM]	inhibition (INH) [6]	inhibition (INH) ([3]; human, bti-tn-5b1-4, 0.25 h, 100 µM)
C/C(=N/Nc1nc(-c2ccc(F)cc2F)cs1)c1ccccn1	< 0.03	40	3.04					
N#Cc1ccc(-c2csc(N/N=C\c3ccncc3)n2)cc1	> 15					6750	Active	Not Active
C/C(=N/Nc1nc(-c2ccc([N+](=O)[O-])cc2)cs1)c1nccs1	24		8.97			366		
Fc1ccc(-c2csc(N/N=C\c3c[nH]c4ccccc34)n2)c(F)c1	29		15.3			529		

Continued by falling IC50 [5], values first:

Ratio IC50 (Homo sapiens)	inhibition at 100 µM [1] [%]	IC50 [2] [µM]	inhibition at 100 µM ([3]; BTI-TN-5B1-4, human, 0.25 h) [%]	inhibition (INH) [4]	IC50 [5] [nM]	inhibition (INH) [6]	inhibition (INH) ([3]; human, bti-tn-5b1-4, 0.25 h, 100 µM)	SMILES
1450		38.7			26.7			C/C(=N/Nc1nc(-c2ccc([N+](=O)[O-])cc2)cs1)c1ccccn1
> 58800			40	Active	1.7			C/C(=N/Nc1nc(-c2ccc(F)cc2)cs1)c1cccnc1
